# “And” between values parts separate entries of the source, which are not always exact repeats. Identical values can stand only once. Like-named read-outs stand apart in the source and are kept apart here.
# Key:
# [1] = biological target: GgdCK2 (Gallus gallus, UniProt Q5ZJM7); test: Steady state kinetics of purified recombinant GgdCK2
# Procedure: (§1) Purification of the Recombinant Enzymes. Transformants (KY895 cells transfected with PZG469 (GgcCK1) and PZG657 (GgdCK2)) were grown in LB medium containing […] ampicillin to A600 0.5-0.6, and the expression was induced with […] IPTG for 4 h at 25° C. […] The cells were homogenized using a French Press, subjected to centrifugation at 12,000×g for 30 minutes (4° C.), filtered through a […] Whatman glass microfiber filter and a […] cellulose acetate filter, and loaded onto the column (2 ml column packed with Glutathione-Sepharose 4 FF, Pharmacia) equilibrated in binding buffer A. Unbound material was removed by washing with 10 column volumes of buffer A. Subsequently the column was washed with 5 ml buffer A containing 10 mM ATP/MgCl2, and incubated for 1 h at room temperature and then 30 min at 4° C. to remove strongly bound contaminating proteins. Afterwards the column was washed again with 10 ml of buffer A and 2 ml of thrombin (50 U/ml) solution were applied on the column. The column was gently shaken overnight at 4° C. to cleave the recombinant protein from the GST-tag. Pure protein was eluted from the column in buffer A. Uncleaved fusion protein was eluted with buffer B (50 mM Tris-HCl pH 8, 10% glycerol, 0,1 % Triton X-100, 10 mM gluthatione reduced). Before storage of enzyme-containing fractions at −80° C., glycerol, Triton X-100, and dithiothreitol were added to 8%, 1% and 1 mM, respectively. Proteins were analyzed on Agilent 2100 Bioanalyzer using Protein Assay Chips.
# Enzyme Assays. Bacteria or cell lines were grown as described, harvested and stored at −80° C. until activity testing. Cells were submitted to brief sonication in extraction buffer (50 mM Tris/HCl pH 7.5, 1 mM DTT, 10% (v/v) glycerol, 1% (v/v) Triton X-100, protease inhibitor cocktail Complete™ from Roche Diagnostics). Deoxyribonucleoside kinase activities were determined by initial velocity measurements based on four time samples by the DE-81 filter paper assay using tritium-labelled nucleoside substrates. App. 20 μg extracts were used in the assays. […]
# [2] = test system: GgdCK1; test: Steady state kinetics of purified recombinant GgdCK1; assay type: biochemical, Gallus gallus
# Procedure: as §1
# Enzyme Assays. Bacteria or cell lines were grown as described, harvested and stored at −80° C. until activity testing. Cells were submitted to brief sonication in extraction buffer (50 mM Tris/HCl pH 7.5, 1 mM DTT, 10% (v/v) glycerol, 1% (v/v) Triton X-100, protease inhibitor cocktail Complete™ from Roche Diagnostics). Deoxyribonucleoside kinase activities were determined by initial velocity measurements based on four time samples by the DE-81 filter paper assay using tritium-labelled nucleoside substrates. App. 20 μg extracts were used in the assays. […] One unit of deoxyribonucleoside kinase activity is defined as 1 μmol of the corresponding monophosphate formed per minute. The obtained data were fitted to the Michaelis-Menten equation v=Vmax·[S]/(Km+[S]).
# [3] = biological target: HsdCK (Homo sapiens, UniProt P27707); details: cited from earlier work; for Kcat / Vmax: literature data
# [4] = test system: MCF-7 (breast cancer cell line); test: Cell proliferation assay (XTT cytotoxicity) of retrovirus-transduced MCF-7 cells; assay type: cell-based; details: Homo sapiens, MCF7, read-out: IC50 value of ara-G, MCF-7 parental cell line
# Procedure: HE 293 T packaging cells (ATCC CRL-11268) were cultured at 37° C. in OPTIMEM 1 medium (Life Technologies, Inc.) The constructed pLCXSN plasmid vector was transfected into the packaging cells using LipofectAMINE PLUS (Life Technologies, Inc.) according to the protocol provided by the supplier. The medium from the transfected cells was collected 48 hours after transfection, filtered through a 0.45 µm filter, pelleted by ultracentrifugation (50.000×g, 90 minutes at 4° C.) and dissolved in DMEM (Cambrex, Blo Whittaker Cat. No. 12-741-F).
# The virus containing medium was subsequently used to transduce the cancer cell lines with a MOI of 5. […]
# Cells were plated at densities range of 1.500-3.500 cells/well in 96-well plates coated with Poly-L-lysine (Sigma Cat. No. P6282) Gemcitabine (obtained from Orifarm A/S—DK) was added after 24 hours of incubation at 37° C., 5% CO2, and the medium containing the nucleoside analog. […] The IC50 value of the investigated drug/compound was calculated as the mean of these experiments using SigmaPlot® (SPSS Science, Dyrberg Trading—DK).
# The sensitivity of the untransduced cells, and of the cells transduced with either the retroviral vector alone ore the vector containing chicken kinases for Gemcitabine and Ara-G was determined.
# [5] = biological target: T1, human dGK (Homo sapiens, UniProt Q16854); details: Zhu et al. 1998; cited from earlier work
# T1 sequence (Q16854 40-277): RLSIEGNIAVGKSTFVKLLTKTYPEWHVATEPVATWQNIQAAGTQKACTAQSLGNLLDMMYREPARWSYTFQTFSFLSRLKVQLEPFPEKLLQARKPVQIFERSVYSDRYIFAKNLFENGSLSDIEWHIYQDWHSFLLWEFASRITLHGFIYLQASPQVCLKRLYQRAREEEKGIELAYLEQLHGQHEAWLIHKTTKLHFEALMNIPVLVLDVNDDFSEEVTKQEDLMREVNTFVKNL
# [6] = test system: deoxyribonucleoside kinases in DT 40 chicken cell line crude extract; test: Deoxyribonucleoside kinase activity in crude extracts of DT 40 cells (DE-81 filter paper assay); assay type: biochemical; details: substrate at 200 μM; triplicates, mean with standard deviation
# Procedure: Deoxribonucleoside kinase activities in DT 40 chicken cell line DT 40 cells were grown in RPMI-1640 medium (Gibco) supplemented with 10% foetal calf serum, 1% chicken serum, 2 mM L-glutamine, 10 uM mercaptoethanol and penicillin-streptomycin mixture […], harvested and stored at −80° C. until activity testing. Cells were submitted to brief sonication in extraction buffer (50 mM Tris/HCl pH 7.5, 1 mM DTT, 10% (v/v) glycerol, 1% (v/v) Triton X-100, protease inhibitor cocktail (Complete™ from Roche Diagnostics). Deoxyribonucleoside kinase activities were determined in the DT 40 extracts by initial velocity measurements based on four time samples by the DE-81 filter paper assay using tritium-labelled nucleoside substrates. App. 20 μg extracts were used in the assays. The assay was done as described by Munch-Petersen et al. [Munch-Petersen, B., Knecht, W., Lenz, C., Sondergaard, L. & Piskur, J: Functional expression of a multisubstrate deoxyribonucleoside kinase from Drosophila melanogaster and its C-terminal deletion mutants; J.Biol.Chem. 2000 275 6673-6679].
# [7] = test system: deoxyribonucleoside kinases in MCF-7 cell crude extract; test: Deoxyribonucleoside kinase activity in crude extracts of MCF-7 cells; assay type: biochemical, human; details: substrate at 200 μM; triplicates, mean with standard deviation
# Procedure: Cells were submitted to brief sonication in extraction buffer (50 mM Tris/HCl pH 7.5, 1 mM DTT, 10% (v/v) glycerol, 1% (v/v) Triton X-100, protease inhibitor cocktail (CompleteTM from Roche Diagnostics). […] App. 20 μg extracts were used in the assays. The assay was done as described by Munch-Petersen et al. [Munch-Petersen, B., Knecht, W., Lenz, […]: Functional expression of a multisubstrate deoxyribonucleoside kinase from Drosophila melanogaster and its C-terminal deletion mutants; J.Biol.Chem. 2000 275 6673-6679].
# [8] = test system: deoxyribonucleoside kinase expressed in E. coli TOP10 extracts; test: Deoxyribonucleoside kinase activity in extracts of transformed TOP10 cells; assay type: biochemical; details: approximate
# [9] = data from Bohman 1988 and Habteyesus 1991, read-out: Km
# GgdCK2, sequence (Q5ZJM7 whole entry): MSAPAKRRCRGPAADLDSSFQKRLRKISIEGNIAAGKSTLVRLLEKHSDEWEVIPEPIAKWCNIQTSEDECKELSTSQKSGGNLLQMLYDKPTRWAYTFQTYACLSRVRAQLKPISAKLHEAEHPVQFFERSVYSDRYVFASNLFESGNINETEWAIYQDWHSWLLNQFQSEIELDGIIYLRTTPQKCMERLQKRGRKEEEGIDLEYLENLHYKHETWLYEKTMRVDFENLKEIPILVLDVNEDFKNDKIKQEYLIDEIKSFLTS
# HsdCK, sequence (P27707 whole entry): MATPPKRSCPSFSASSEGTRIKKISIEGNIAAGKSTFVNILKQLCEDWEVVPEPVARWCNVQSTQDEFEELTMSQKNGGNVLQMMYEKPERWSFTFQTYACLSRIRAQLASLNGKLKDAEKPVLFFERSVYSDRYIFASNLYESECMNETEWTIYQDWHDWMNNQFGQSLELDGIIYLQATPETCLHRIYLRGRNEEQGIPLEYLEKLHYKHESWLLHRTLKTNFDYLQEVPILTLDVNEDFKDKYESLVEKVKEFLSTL
Km [2],Compound,Kcat [2] [s⁻¹],Vmax [2] [nm/min/mg],Deoxyribonucleoside kinase activity in crude extract of DT 40 cells [6] [mU/mg],Deoxyribonucleoside kinase activity in crude extract of MCF-7 cells [7] [mU/mg],further results
15.3 ± 2.3 µM,"Nc1ccn([C@@H]2O[C@H](CO)[C@@H](O)[C@@H]2O)c(=O)n1 [araC, cytidine-arabinoside]",0.44,878 ± 33,–,–,Kcat [1]: 0.34 s⁻¹; Km [1]: 1470 ± 664 µM; Vmax [1]: 649 ± 267 nm/min/mg
–,"Nc1nc(F)nc2c1ncn2[C@@H]1O[C@H](CO)[C@@H](O)[C@@H]1O [F-araA, 2-Fluoroadenine 9-beta-D-Arabinofuranoside]",–,–,–,–,Km ([3]; data from Bohman 1988 and Habteyesus 1991): 200 µM
–,"Nc1nc2c(ncn2[C@@H]2O[C@H](CO)[C@@H](O)[C@@H]2O)c(=O)[nH]1 [ara-G, 9-beta-D-arabinofuranosylguanine]",–,–,–,–,IC50 [4]: 1580 ± 158 µM; Km [5]: 8 µM; relative phosphorylation higher by recombinant human dGK than by recombinant human dCK [5]: 76 times
4.8 µM,"Nc1ccn([C@H]2C[C@H](O)[C@@H](CO)O2)c(=O)n1 [dCyd, deoxycytidine]",0.30,589 ± 34,0.09 ± 0.01,0.01 ± 0.00,–
61.8 ± 11.1 µM,"Nc1nc2c(ncn2[C@H]2C[C@H](O)[C@@H](CO)O2)c(=O)[nH]1 [dGuo, deoxyguanosine]",0.20,394 ± 37,0.09 ± 0.00,0.01 ± 0.00,"Km [5]: 7.6 µM; Km [3, 9]: 100 µM; Kcat [3]: 0.33 s⁻¹; Vmax [3]: 600 nm/min/mg"
–,"GgdCK1: Gallus gallus deoxycytidine kinase 1, 257 amino acid residues, SEQ ID No. 2",–,–,–,–,dCyd phosphorylation efficiency [8]: ~8 mU
–,"Cc1cn([C@H]2C[C@H](O)[C@@H](CO)O2)c(=O)[nH]c1=O [dThd, thymidine]",–,–,0.1 ± 0.03,0.07 ± 0.00,–
6.3 ± 0.5 µM,"Nc1ccn([C@@H]2O[C@H](CO)[C@@H](O)C2(F)F)c(=O)n1 [Gemcitabine, 2′,2′-difluorodeoxycytidine]",1.37,2712 ± 357,–,–,"Km [3, 9]: 60 µM; Kcat [3]: 0.05 s⁻¹; Vmax [3]: 100 nm/min/mg"
3.3 ± 0.4 µM,"Nc1nc(Cl)nc2c1ncn2[C@H]1C[C@H](O)[C@@H](CO)O1 [CdA, 2-chloro-2′-deoxyadenosine]",0.64,1273 ± 38,–,–,–

Compound,Km [2],Kcat [2] [s⁻¹],Vmax [2] [nm/min/mg],Deoxyribonucleoside kinase activity in crude extract of DT 40 cells [6] [mU/mg],Deoxyribonucleoside kinase activity in crude extract of MCF-7 cells [7] [mU/mg],further results
"Nc1ncnc2c1ncn2[C@H]1C[C@H](O)[C@@H](CO)O1 [dAdo, deoxyadenosine]",79 µM and 82 µM,–,–,0.1 ± 0.01,0.05 ± 0.00,–
